From paper PMC6934184, “Selective DNA-PKcs inhibition extends the therapeutic index of localized radiotherapy and chemotherapy” (The Journal of Clinical Investigation, 2019)

Target: T1, ABL1 H396P (Homo sapiens, UniProt P00519, H396P)
T1 construct: purchased Thermo Fisher Scientific (Life Technologies) SelectScreen
Experiment: SelectScreen LanthaScreen
Assay type: binding
Conditions: read-out: % displacement
How it was run: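 SelectScreen broad panel; activity (Z'LYTE, Adapta) plus binding formats. ATP: Km app for CSF1R Z'LYTE; 10 for CAMK1 Adapta. Readout = % per kinase.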

## CN(C(=O)CN1CCOCC1)c1ccc2sc3c(-c4cccc5c(=O)cc(N6CC7CCC(C6)O7)oc45)cccc3c2c1 [NU5455]
  inhibition at 1 µM: 0.6%
